Source: publication PMC10254235, “Design, Synthesis, and Anti-Cervical Cancer and Reversal of Tumor Multidrug Resistance Activity of Novel Nitrogen-Containing Heterocyclic Chalcone Derivatives” (Molecules, 2023)
Read-outs that look alike come from different tables or passages of the source.

How the values were obtained:
[1] = tested on: p-VEGFR-2 (Y1175); experiment: Western blot, p-VEGFR-2 in HeLa cells; format: cell-based, human; conditions: HeLa, 2, 4 and 6 μM, 24 h
Method: (§1) Next, the protein concentrations were determined using a BCA Protein Assay Kit (Solarbio, China). An equal amount of the proteins (12 μg) were separated using 8–12% sodium dodecyl sulfate–polyacrylamide gel electrophoresis (SDS-PAGE) and transferred to nitrocellulose membranes (Amersham Biosciences, Little Chalfont, Buckinghamshire, UK). Then, the membranes were blocked with 5% nonfat dried milk in TBS containing 1% Tween-20 for 2 h at room temperature and were incubated overnight with specific primary antibodies (CST, Boston, MA, USA) at 4 °C. After three washes in TBST, the membranes were incubated with the appropriate HRP-conjugated secondary antibodies at room temperature for 2 h. The blots were developed using enhanced chemiluminescence (Biosharp, Shanghai, China) and were detected using a PE 0723 imager (ProteinSimple, Silicon Valley, CA, USA). Each experiment was performed at least in triplicate and analyzed using Image J software (V1.8.0.112). […]

[2] = tested on: HeLa cells; experiment: Transwell invasion assay (Matrigel); format: cell-based, human; conditions: 24 h, control 172
Method: The transwell ([…], Corning Incorporated, New York, NY, USA) was precoated using 50 μL Matrigel for 5 h at 37 °C to achieve solidification. […] After 24 h of incubation at 37 °C, the invasion cells were fixed using methanol and stained using 0.1% crystal violet for 30 min, respectively. Then, the chambers were washed using PBS and left to dry. Images were photographed using an inverted fluorescence microscope (Leica, Microsystems CMS GmbH, GER) and counted using Image J software (V1.8.0.112) for three independent fields randomly.

[3] = tested on: H8 cells; experiment: MTT cytotoxicity assay, normal cervical epithelial H8 cells; format: cell-based, human; conditions: Homo sapiens, 48 h, mean ± SD
Method: (§2) HeLa and SiHa cell lines were obtained from the Procell Life Science Technology Co., Ltd. (Wuhan, China); H8 cell line was obtained from the Shanghai HonSun Biological Technology Co., Ltd. (Shanghai, China); HUVEC cell line was obtained from the Saibaikang (Shanghai) Biotechnology Co., Ltd. (Shanghai, China); HeLa/DDP cell line was obtained from the Guangzhou Jenniobio Biotechnology Co., Ltd. (Guangzhou, China). HeLa, SiHa, H8, and HeLa/DDP cells were cultured in DMEM medium (HyClone). The VEGF of 50 ng/mL was used as the promoter of the VEGFR-2 receptor on HUVEC cell membrane surfaces, and their inhibitory effects on VEGFR-2 were determined. All the mediums were supplemented with 10% FBS (HyClone, GE Healthcare, Australia). Cells were maintained at subconfluency at 37 °C in humidified air containing 5% CO2. The cells were monitored daily and maintained at 80% cell density. All compounds tested were dissolved in DMSO and then diluted by the culture medium before the treatment of cultured cells. Identification reports are available for all types of cell lines involved in this study.
(§3) The cytotoxicity of the target compounds were measured in vitro using the MTT assay. Cells grown in the logarithmic phase were counted and seeded in 96-well cell culture plates (5 × 10^3 cells per well) for 24 h to allow attachment of cells to the wall of the plate. […] Next, 20 μL of 5 mg.mL^−1 MTT solution was added to each well and cultured for 4 h. The old solution was discarded, replaced with 150 μL DMSO solution per well, and shaken for 10 min. The OD value was measured under 490 nm, and the inhibition rate was calculated. The nonlinear regression fitting of the cell growth rate was carried out using SPSS 23.0 software, and the IC50 of the compound was calculated. […] There were 6 compound holes in each group, and the experimental results were presented as the average of 3 experiments. A complete medium containing only cells was used as the blank control, whereas a complete medium without cells was the negative control group. Cisplatin and sorafenib were utilized as the positive control group, and the target compound was the experimental intervention group.

[4] = tested on: p-VEGFR-2; experiment: Western blot, VEGFR-2 phosphorylation in HUVEC cells; format: cell-based, human; conditions: 24 h, 6f 2, 4, 6 μM, sorafenib 4 μM, versus blank group, p < 0.05
[5] = molecular target: T1, VEGFR-2 (Homo sapiens, UniProt P35968); experiment: VEGFR-2 inhibition test (human p-VEGFR-2 ELISA in HeLa cells); format: cell-based; conditions: ± SD, read-out: 48h IC50 VEGFR-2 inhibitory effect
T1 construct: endogenous in cells; host or cells: HeLa cells
Method: Specimens, standards, and HRP-labeled detection antibodies were added sequentially to the pre-covered microtiter wells containing phosphorylated vascular endothelial growth factor receptor 2 (p-VEGFR2) antibodies, warmed, and washed thoroughly. The substrate TMB was added for color development. This substrate is converted to blue using peroxidase catalysis to a final yellow color due to the action of acid. […] Curve fitting was performed using SPSS 23.0 software to calculate IC50.

[6] = tested on: P-gp; experiment: Western blot, P-gp expression in HeLa/DDP cells; format: cell-based, human; conditions: 0.25, 0.5 and 1 μM, p > 0.05
Method: as §1
(§4) To reduce the adverse reactions caused by the fixation of drug resistance reversal agents, the concentration that reduces the proliferation rate of tumor cells by less than 10% was selected. Therefore, the inhibitory activity of compound 6f on HeLa/DDP cells was determined in the concentration ranges of 0.25, 0.5, and 1 μM combined with cisplatin. […]

[7] = tested on: p-VEGFR-2; experiment: Western blot, VEGFR-2 phosphorylation in HeLa/DDP cells; format: cell-based, human; conditions: 4 and 6 μM, versus blank group, p < 0.05
Method: as §1, §4

[8] = tested on: HeLa cells; experiment: MTT antiproliferative assay, HeLa cells; format: cell-based, human; conditions: Homo sapiens, 48 h
Method: as §2, §3

[9] = tested on: p-PI3K (Tyr458); experiment: Western blot, p-PI3K in HeLa cells; format: cell-based, human; conditions: HeLa, 2, 4 and 6 μM, 24 h
Method: as §1

[10] = tested on: SiHa cells; experiment: MTT antiproliferative assay, SiHa cells; format: cell-based, human; conditions: Homo sapiens, 48 h, mean ± SD
Method: as §2, §3

[11] = tested on: p-AKT (Ser473); experiment: Western blot, p-AKT in HeLa cells; format: cell-based, human; conditions: HeLa, 2, 4 and 6 μM, 24 h
Method: as §1

T1 sequence (P35968 20-1356): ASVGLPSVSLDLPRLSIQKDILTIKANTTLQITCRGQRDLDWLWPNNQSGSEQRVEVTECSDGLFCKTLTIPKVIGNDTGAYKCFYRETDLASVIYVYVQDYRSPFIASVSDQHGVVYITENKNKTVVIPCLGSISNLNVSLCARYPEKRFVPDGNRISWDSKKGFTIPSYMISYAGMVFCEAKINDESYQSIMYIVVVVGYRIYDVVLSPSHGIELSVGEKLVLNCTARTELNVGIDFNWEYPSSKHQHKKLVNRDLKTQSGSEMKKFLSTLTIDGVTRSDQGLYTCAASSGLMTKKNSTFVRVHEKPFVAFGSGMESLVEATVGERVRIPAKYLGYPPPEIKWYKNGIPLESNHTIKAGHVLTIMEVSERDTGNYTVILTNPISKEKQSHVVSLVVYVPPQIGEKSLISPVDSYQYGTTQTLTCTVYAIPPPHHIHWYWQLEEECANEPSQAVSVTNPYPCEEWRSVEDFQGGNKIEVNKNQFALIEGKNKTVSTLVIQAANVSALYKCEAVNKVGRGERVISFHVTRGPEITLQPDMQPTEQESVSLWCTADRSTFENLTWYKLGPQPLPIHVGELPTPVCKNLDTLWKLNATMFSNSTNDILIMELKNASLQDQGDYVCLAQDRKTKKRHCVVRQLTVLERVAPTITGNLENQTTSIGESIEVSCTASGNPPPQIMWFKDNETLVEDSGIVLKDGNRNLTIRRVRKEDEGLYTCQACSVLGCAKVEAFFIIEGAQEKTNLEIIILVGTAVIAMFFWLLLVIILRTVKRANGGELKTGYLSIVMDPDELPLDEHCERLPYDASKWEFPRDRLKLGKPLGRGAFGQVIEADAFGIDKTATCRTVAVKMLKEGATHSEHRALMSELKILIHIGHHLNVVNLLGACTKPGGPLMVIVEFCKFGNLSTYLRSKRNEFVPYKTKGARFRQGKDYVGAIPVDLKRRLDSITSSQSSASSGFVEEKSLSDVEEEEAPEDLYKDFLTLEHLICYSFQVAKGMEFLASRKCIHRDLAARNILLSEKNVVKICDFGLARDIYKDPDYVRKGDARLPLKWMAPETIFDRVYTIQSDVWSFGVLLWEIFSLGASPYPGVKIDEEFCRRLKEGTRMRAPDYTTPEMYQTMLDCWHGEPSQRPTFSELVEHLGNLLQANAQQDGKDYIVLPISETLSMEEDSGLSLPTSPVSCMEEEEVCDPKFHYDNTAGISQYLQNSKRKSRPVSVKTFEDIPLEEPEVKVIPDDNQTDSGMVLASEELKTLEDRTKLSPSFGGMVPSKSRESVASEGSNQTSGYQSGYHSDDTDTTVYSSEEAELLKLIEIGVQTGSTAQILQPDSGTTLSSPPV

COc1cc(O)c(C(=O)/C=C/c2ccc(CN3CCC(C)CC3)cc2)cc1CN1CCC(O)CC1 [6f, (E)-1-(2-hydroxy-5-((4-hydroxypiperidin-1-yl)methyl)-4-methoxyphenyl)-3-(4-((4-methylpiperidin-1-yl)methyl)phenyl)prop-2-en-1-one]
p-VEGFR-2 (Y1175) in HeLa cells (Western blot) [1]: effective downregulation
number of invading cells ([2]; 2 μM): 91
number of invading cells ([2]; 4 μM): 50
number of invading cells ([2]; 6 μM): 35
IC50 [3]: 30.1 ± 2.51 µM
phosphorylation of VEGFR-2 in HUVEC cells (Western blot) [4]: significantly inhibited the phosphorylation of VEGFR-2
IC50 [5]: 0.75 ± 0.05 µM
P-gp expression in HeLa/DDP cells (Western blot) [6]: did not exhibit a significant variance in P-gp expression
phosphorylation of VEGFR-2 in HeLa/DDP cells (Western blot) [7]: noteworthy ability to impede the phosphorylation of VEGFR-2
IC50 ([8]; MTT, mean ± SD, read-out: 48h IC50 HeLa): 6.52 ± 0.42 µM
IC50 ([8]; single agent, read-out: 48h IC50 HeLa (Table 4)): 6.52 ± 0.42 µM
p-PI3K (Tyr458) in HeLa cells (Western blot) [9]: effective downregulation
IC50 [10]: 7.88 ± 0.52 µM
p-AKT (Ser473) in HeLa cells (Western blot) [11]: effective downregulation
